Among the data in paper PMC11609934, “Exploration and characterization of the antimalarial activity of cyclopropyl carboxamides that target the mitochondrial protein, cytochrome b” (European Journal of Medicinal Chemistry, 2024) are EC50 and CC50 values, retold here.

Data set [1] relates to P. falciparum 3D7 parasites. In words: P. falciparum 3D7 asexual stage LDH assay (72 h). It is filed as cell-based, Plasmodium falciparum. The following applies: Plasmodium falciparum, 3D7, 72 h, LDH activity of P. falciparum 3D7 parasites over 72 h; means and SDs, three or more experiments; read-out: Pf 3D7 EC50 (SD). As for the experimental part: To establish the SAR, synthesized analogs were assessed against the asexual stage parasite (72 h) using LDH as a proxy for parasite growth inhibition. Cytotoxicity was monitored against the human HepG2 cell line using Cell TitreGlo as a metabolic marker for cell growth.
P. falciparum 3D7 Asexual Stage LDH Assay. This is a platform assay is routinely undertaken at the Walter and Eliza Hall Institute and details on the protocol has been previously published. Briefly, 10-point dilution series of the compounds were prepared in 384 well assay plates using an Echo555 (Labcyte). Appropriate volumes of 10 mM compound stocks were transferred into the assay plates such that the starting concentration was 1 μM, with a 1 in 3-fold dilution series. All wells were backfilled with DMSO to 40 nL such that this remained constant (0.1 % DMSO). The positive growth control was 0.1 % DMSO and the negative growth control was 100 nM chloroquine. The parasite inoculum (40 μL) was dispensed into plates containing compounds using a Multidrop Combi dispenser (Thermo Scientific). […] Following 72 h growth, plates were sealed with parafilm and frozen at −80 °C overnight. Plates were thawed at room temperature for at least 4 h prior to LDH activity being measured. […] Plates were shaken to ensure mixing and absorbance at 650 nm was measured in an EnVision (PerkinElmer) plate reader after 30 min of incubation at room temperature. […] The equation used is sigmoidal dose response (variable slope), Y = bottom + (top − bottom)/(1 + 10((logEC50 − X) × Hill Slope)).

Data set [2] can be described thus: Human HepG2 growth inhibition assay (Cell TitreGlo, 48 h). It is filed as cell-based. The settings on record: human, HepG2 cells, HepG2 cell growth inhibition over 48 h. The procedure:
To establish the SAR, synthesized analogs were assessed against the asexual stage parasite (72 h) using LDH as a proxy for parasite growth inhibition. Cytotoxicity was monitored against the human HepG2 cell line using Cell TitreGlo as a metabolic marker for cell growth. Cyt b inhibitors typically have high lipophilicity, and so calculated physicochemical properties were determined, while in vitro ADME was also collected on representative analogs to gauge their suitability for efficacy studies in a 4-day P. berghei model.
Human HepG2 Growth Inhibition Assay. This is a routine assay undertaken at the Walter and Eliza Hall Institute and the method has been previously published. HepG2 cells were cultured in Dulbeccos modified eagles medium (DMEM) supplemented with 10 % fetal calf serum (FCS), in a humidified incubator at 37 °C and 5 % CO2. Assay plates (Greiner #781098, 384 well, white, tissue culture treated) were prepared by transferring appropriate volumes of 10 mM compound stocks using an Echo555 (Labcyte) such that the starting concentration was 50 μM, with a 1:2-fold dilution series. All wells were backfilled with DMSO to […] such that this remained constant (0.5 % DMSO). The positive growth control was 0.5 % DMSO and the negative growth control was 10 μM Bortezomib. HepG2 cells were seeded with 1000 cells in 50 μL DMEM with 10 % FCS into each well of the assay plates using a Multidrop Combi dispenser (Thermo Scientific). Plates were incubated at 37 °C and 5 % CO2 for 48 h. Cytotoxicity was determined using Cell Titer Glo (Promega) and calculated as a percentage using DMSO as the positive growth control and 10 μM Bortezomib as a negative growth control. EC50 values were calculated by Dotmatics 5.3 and Spotfire 7.11.1 software using a nonlinear regression four-parameter fit analysis. The equation used is sigmoidal dose response (variable slope), Y = bottom + (top − bottom)/(1 + 10((logEC50 − X) × Hill Slope)).

`O=C(NC1CC1)c1ccc(CN(Cc2ccccc2C(F)(F)F)C2CC2)cc1` [Compound 49]: the EC50 in data set [1] was determined as 220 nM. In data set [2], this compound displayed a half-maximal cytotoxic concentration (CC50) at 48 h greater than 40000 nM.

Turning to `Cc1cccc(CN(Cc2ccc(C(=O)NC3CC3)cc2)C2CC2)c1` [Compound 50], in data set [1], the EC50 is 170 nM. The same compound displayed a CC50 at 48 h in data set [2] greater than 40000 nM.

`Cc1ccc(CN(Cc2ccc(C(=O)NC3CC3)cc2)C2CC2)cc1` [Compound 51]: the concentration for a half-maximal effect (EC50) in data set [1] turned out to be 150 nM. The same compound registered a CC50 at 48 h in data set [2] greater than 40000 nM.

Consider `O=C(NC1CC1)c1ccc(CN(Cc2cccc(C(F)(F)F)c2)C2CC2)cc1` [Compound 52], for which, in data set [1], the EC50 came out at 160 nM. This compound had a CC50 at 48 h in data set [2] greater than 40000 nM.

As to `O=C(NC1CC1)c1ccc(CN(Cc2ccc(C(F)(F)F)cc2)C2CC2)cc1` [Compound 53], in data set [1], the EC50 was found to be 110 nM. In data set [2], this compound displayed a CC50 at 48 h greater than 40000 nM.

Regarding `CC(C)c1cccc(CN(Cc2ccc(C(=O)NC3CC3)cc2)C2CC2)c1` [Compound 54, N-Cyclopropyl-4-((cyclopropyl(3-isopropylbenzyl)amino)methyl)benzamide], the EC50 in data set [1] was 80 nM. In data set [2], this compound displayed a CC50 at 48 h greater than 40000 nM.

`CC(C)c1ccc(CN(Cc2ccc(C(=O)NC3CC3)cc2)C2CC2)cc1` [Compound 55, N-Cyclopropyl-4-((cyclopropyl(4-isopropylbenzyl)amino)methyl)benzamide]: the EC50 in data set [1] was found to be 110 nM. The 50% cytotoxic concentration (CC50) at 48 h in data set [2] was greater than 40000 nM.

Turning to `CC(C)(C)c1ccc(CN(Cc2ccc(C(=O)NC3CC3)cc2)C2CC2)cc1` [Compound 56], in data set [1], the EC50 was 60 nM. Besides, in data set [2], the CC50 at 48 h is greater than 40000 nM.

Consider `COc1ccccc1CN(Cc1ccc(C(=O)NC2CC2)cc1)C1CC1` [Compound 57], for which the EC50 in data set [1] is 270 nM. The CC50 at 48 h in data set [2] is greater than 40000 nM.

For the compound `COc1cccc(CN(Cc2ccc(C(=O)NC3CC3)cc2)C2CC2)c1` [Compound 58], the EC50 in data set [1] was 490 nM. Moreover, the CC50 at 48 h in data set [2] is greater than 40000 nM.

In the case of `COc1ccc(CN(Cc2ccc(C(=O)NC3CC3)cc2)C2CC2)cc1` [Compound 59], the EC50 in data set [1] came to 230 nM. Further, the CC50 at 48 h in data set [2] was greater than 40000 nM.

Take `N#Cc1ccccc1CN(Cc1ccc(C(=O)NC2CC2)cc1)C1CC1` [Compound 60]: in data set [1], the EC50 worked out at 120 nM. Further, the CC50 at 48 h in data set [2] is greater than 40000 nM.

`N#Cc1cccc(CN(Cc2ccc(C(=O)NC3CC3)cc2)C2CC2)c1` [Compound 61]: in data set [1], the EC50 worked out at 130 nM. The CC50 at 48 h in data set [2] was greater than 40000 nM.

As to `N#Cc1ccc(CN(Cc2ccc(C(=O)NC3CC3)cc2)C2CC2)cc1` [Compound 62], in data set [1], the concentration for a half-maximal effect (EC50) was found to be 630 nM. For the same compound, in data set [2], the CC50 at 48 h was greater than 40000 nM.

As for `CN(C)c1ccc(CN(Cc2ccc(C(=O)NC3CC3)cc2)C2CC2)cc1` [Compound 63, N-Cyclopropyl-4-((cyclopropyl(4-(dimethylamino)benzyl)amino)methyl)benzamide], the 50% effective concentration (EC50) in data set [1] is 530 nM. In addition, the CC50 at 48 h in data set [2] is greater than 40000 nM.

For the compound `CN(C)c1cccc(CN(Cc2ccc(C(=O)NC3CC3)cc2)C2CC2)c1` [Compound 64, N-Cyclopropyl-4-((cyclopropyl(3-(dimethylamino)benzyl)amino)methyl)benzamide], the EC50 in data set [1] was found to be 320 nM. Also, the CC50 at 48 h in data set [2] was greater than 40000 nM.

As for `CC(=O)Nc1ccccc1CN(Cc1ccc(C(=O)NC2CC2)cc1)C1CC1` [Compound 65, 4-(((2-Acetamidobenzyl) (cyclopropyl)amino)methyl)-N-cyclopropylbenzamide], the EC50 in data set [1] is 7400 nM. For the same compound, in data set [2], the CC50 at 48 h is greater than 40000 nM.

For `CC(=O)c1cccc(CN(Cc2ccc(C(=O)NC3CC3)cc2)C2CC2)c1` [Compound 68], the EC50 in data set [1] worked out at 110 nM. Further, the CC50 at 48 h in data set [2] was greater than 40000 nM.

`CC(=O)c1ccc(CN(Cc2ccc(C(=O)NC3CC3)cc2)C2CC2)cc1` [Compound 69]: in data set [1], the concentration giving a half-maximal response (EC50) is 900 nM. The compound also yielded a CC50 at 48 h in data set [2] greater than 40000 nM.

With `O=C(NC1CC1)c1ccc(CN(Cc2cccc(CO)c2)C2CC2)cc1` [Compound 70, N-Cyclopropyl-4-((cyclopropyl(3-(hydroxymethyl)benzyl)amino)methyl)benzamide], the half-maximal effective concentration (EC50) in data set [1] worked out at 1100 nM. In addition, the 50% cytotoxic concentration (CC50) at 48 h in data set [2] was greater than 40000 nM.

Take `O=C(NC1CC1)c1ccc(CN(Cc2ccc(CO)cc2)C2CC2)cc1` [Compound 71, N-Cyclopropyl-4-((cyclopropyl(4-(hydroxymethyl)benzyl)amino)methyl)benzamide]: the EC50 in data set [1] is 170 nM. Besides, in data set [2], the CC50 at 48 h was greater than 40000 nM.

Take `O=C(NC1CC1)c1ccc(CN(Cc2ccc(F)cc2F)C2CC2)cc1` [Compound 72, N-Cyclopropyl-4-((cyclopropyl(2,4-difluorobenzyl)amino)methyl)benzamide]: the EC50 in data set [1] stood at 230 nM. Further, in data set [2], the CC50 at 48 h is greater than 40000 nM.

As for `O=C(NC1CC1)c1ccc(CN(Cc2ccc(F)c(F)c2)C2CC2)cc1` [Compound 73], the 50% effective concentration (EC50) in data set [1] was determined as 220 nM. Further, the CC50 at 48 h in data set [2] was greater than 40000 nM.

As for `O=C(NC1CC1)c1ccc(CN(Cc2cc(F)cc(F)c2)C2CC2)cc1` [Compound 74], the EC50 in data set [1] came to 220 nM. This compound also registered a CC50 at 48 h in data set [2] greater than 40000 nM.

Turning to `O=C(NC1CC1)c1ccc(CN(Cc2c(F)cc(F)cc2F)C2CC2)cc1` [Compound 75, N-Cyclopropyl-4-((cyclopropyl(2,4,6-trifluorobenzyl)amino)methyl)benzamide], in data set [1], the concentration for a half-maximal effect (EC50) is 190 nM. Besides, the CC50 at 48 h in data set [2] was greater than 40000 nM.

For `O=C(NC1CC1)c1ccc(CN(Cc2ccc(Cl)c(Cl)c2)C2CC2)cc1` [Compound 76], in data set [1], the EC50 was 210 nM. This compound showed a CC50 at 48 h in data set [2] greater than 40000 nM.

As to `O=C(NC1CC1)c1ccc(CN(Cc2cc(Cl)cc(Cl)c2)C2CC2)cc1` [Compound 77], the EC50 in data set [1] came to 230 nM. This compound came in with a CC50 at 48 h in data set [2] greater than 40000 nM.

For `O=C(NC1CC1)c1ccc(CN(Cc2c(Cl)cc(Cl)cc2Cl)C2CC2)cc1` [Compound 78, N-Cyclopropyl-4-((cyclopropyl(2,4,6-trichlorobenzyl)amino)methyl)benzamide], the EC50 in data set [1] was determined as 100 nM. The compound also registered a CC50 at 48 h in data set [2] greater than 40000 nM.

As to `Cc1ccc(CN(Cc2ccc(C(=O)NC3CC3)cc2)C2CC2)c(C)c1` [Compound 80, N-Cyclopropyl-4-((cyclopropyl(2,4-dimethylbenzyl)amino)methyl)benzamide], the EC50 in data set [1] was found to be 190 nM. For the same compound, the cytotoxic concentration (CC50) at 48 h in data set [2] was greater than 40000 nM.

Regarding `Cc1cc(C)cc(CN(Cc2ccc(C(=O)NC3CC3)cc2)C2CC2)c1` [Compound 81], the concentration giving a half-maximal response (EC50) in data set [1] stood at 190 nM. The compound further gave a CC50 at 48 h in data set [2] greater than 40000 nM.

`Cc1cc(C)c(CN(Cc2ccc(C(=O)NC3CC3)cc2)C2CC2)c(C)c1` [Compound 82, N-Cyclopropyl-4-((cyclopropyl(2,4,6-trimethylbenzyl)amino)methyl)benzamide]: the EC50 in data set [1] worked out at 80 nM. In data set [2], this compound yielded a CC50 at 48 h greater than 40000 nM.

Take `COc1cc(OC)c(CN(Cc2ccc(C(=O)NC3CC3)cc2)C2CC2)c(OC)c1` [Compound 83, N-Cyclopropyl-4-((cyclopropyl(2,4,6-trimethoxybenzyl)amino)methyl)benzamide]: the EC50 in data set [1] is 2500 nM. In data set [2], this compound returned a CC50 at 48 h greater than 40000 nM.

Regarding `O=C(NC1CC1)c1ccc(CN(Cc2cc(C(F)(F)F)cc(C(F)(F)F)c2)C2CC2)cc1` [Compound 84, 4-(((3,5-Bis(trifluoromethyl)benzyl) (cyclopropyl)amino)methyl)-N-cyclopropylbenzamide], in data set [1], the EC50 stood at 100 nM. Besides, it took 15000 nM to reach half-maximal cytotoxicity in data set [2] (CC50 at 48 h).

Take `O=C(NC1CC1)c1ccc(CN(Cc2ccccn2)C2CC2)cc1` [Compound 85]: in data set [1], the EC50 was found to be 6600 nM. In data set [2], this compound showed a CC50 at 48 h greater than 40000 nM.

As for `O=C(NC1CC1)c1ccc(CN(Cc2ccncc2)C2CC2)cc1` [Compound 87], the EC50 in data set [1] turned out to be 9200 nM. The compound further registered a 50% cytotoxic concentration (CC50) at 48 h in data set [2] greater than 40000 nM.

Take `CCCN(Cc1ccc(C(=O)NC2CC2)cc1)C1CC1` [Compound 90, N-Cyclopropyl-4-((cyclopropyl(propyl)amino)methyl)benzamide]: the EC50 in data set [1] was determined as 2500 nM. This compound gave a cytotoxic concentration (CC50) at 48 h in data set [2] greater than 40000 nM.

As usually defined, the EC50 is the concentration that produces a half-maximal response. As a reminder, the CC50 is the concentration giving 50% cytotoxicity.
